Tested on: cucumber phytophthora blight fungi (Phytophthora capsici)
Assay: Test for controlling cucumber phytophthora blight fungi (titer plate growth test)
Assay type: cell-based
Settings: 4.5 mg in 100 μL dimethyl sulfoxide, 1 μL portion plus 150 μL PDB medium with zoospores; 27° C., three days; absorbance at 600 nm; Efficacy=100×(X−Y)/X
Description: Test example 1: Test for controlling cucumber phytophthora blight fungi (Phytophthora capsici)
Four point five (4.5) milligrams of the present compound was diluted with 100 μL of dimethyl sulfoxide. One (1) μL portion of the diluted liquid was dispensed into a titer plate (96 wells), and thereto was then dispensed 150 μL of a potato dextrose broth medium (PDB medium) containing zoospores of cucumber phytophthora blight fungi (Phytophthora capsici). This plate was cultured at 27° C. for three days, thereby allowing the cucumber phytophthora blight fungi to undergo proliferation, and the absorbance at 600 nm of each well of the titer plate was then measured to determine a degree of growth of the cucumber phytophthora blight fungi. The efficacy was calculated from the determined degree of growth by the below-mentioned “Equation 1”. As a result, the efficacy of the Present compound was 90% or more. Efficacy=100×(X−Y)/X “Equation 1” where X: Degree of fungal growth in non-treated area Y: Degree of fungal growth in treated area
In the test example, a non-treated area means an area in which a test was conducted in the same manner, except that dimethyl sulfoxide was dispensed in place of the present compound diluted with dimethyl sulfoxide.

CCOC(=O)COc1ncccc1Oc1cc(NC(C)=O)c(F)cc1Cl [N-[4-chloro-2-fluoro-5-{2-(ethoxycarbonyl)methoxy-3-pyridyloxy}phenyl]acetamide]
efficacy: less than 50%

CCOC(=O)COc1ncccc1Oc1cc(NC(N)=O)c(F)cc1Cl [Present compound]
efficacy: ≥ 90%

Source: US10624343B2, “Phenyl urea compound, and use thereof” (Sumitomo Chemical Company, Limited, priority 2016, dated 2020)
